The values below come from US7553838B2, “Mitotic kinesin inhibitors” (Merck & Co. Inc., priority 2004, dated 2009).

This test addresses T1, human poly-histidine tagged KSP motor domain (KSP(367H)) (Homo sapiens, UniProt P52732).
T1 construct: were used to amplify the motor domain and the neck linker region; made in house; host or cells: E. coli BL21 (DE3), pRSETa
T1 sequence (P52732 18-359 limits assumed): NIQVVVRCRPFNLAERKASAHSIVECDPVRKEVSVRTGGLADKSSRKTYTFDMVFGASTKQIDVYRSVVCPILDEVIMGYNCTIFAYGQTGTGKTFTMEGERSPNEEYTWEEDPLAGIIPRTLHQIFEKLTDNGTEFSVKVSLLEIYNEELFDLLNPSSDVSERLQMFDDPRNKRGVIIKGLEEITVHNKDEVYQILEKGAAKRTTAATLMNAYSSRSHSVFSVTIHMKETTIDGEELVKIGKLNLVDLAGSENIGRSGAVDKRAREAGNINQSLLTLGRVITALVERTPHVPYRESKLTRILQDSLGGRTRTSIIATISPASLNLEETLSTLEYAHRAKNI
The test can be described thus: Kinesin ATPase In Vitro Assay. Format: biochemical. The conditions noted are these: microtubules, 1 mM ATP, 23° C.; free phosphate by quinaldine red/ammonium molybdate. The source says: I. Kinesin ATPase In Vitro Assay
Cloning and expression of human poly-histidine tagged KSP motor domain (KSP(367H))
Plasmids for the expression of the human KSP motor domain construct were cloned by PCR using a pBluescript full length human KSP construct (Blangy et al., Cell, vol. 83, pp 1159-1169, 1995) as a template. The N-terminal primer 5′-[…] (SEQ.ID.NO.: 1) and the C-terminal primer 5′-[…] […] (SEQ.ID.NO.: 2) were used to amplify the motor domain and the neck linker region. The PCR products were digested with AseI and XhoI, ligated into the NdeI/XhoI digestion product of pRSETa (Invitrogen) and transformed into E. coli BL21 (DE3).
Cells were grown at 37° C. to an OD600 of 0.5. […]
The kinesin motor domain is incubated with microtubules, 1 mM ATP (1:1 MgCl2: Na-ATP), and compound at 23° C. in buffer containing 80 mM K-HEPES (pH 7.0), 1 mM EGTA, 1 mM DTT, 1 mM MgCl2, and 50 mM KCl. […] Free phosphate from the ATP hydrolysis reaction is measured via a quinaldine red/ammonium molybdate assay by adding 150 μl of quench C buffer containing a 2:1 ratio of quench A:quench B. Quench A contains 0.1 mg/ml quinaldine red and 0.14% polyvinyl alcohol; quench B contains 12.3 mM ammonium molybdate tetrahydrate in 1.15 M sulfuric acid. The reaction is incubated for 10 minutes at 23° C., and the absorbance of the phospho-molybdate complex is measured at 540 nm.

On to `CC(C(=O)N1N=C(c2cc(F)ccc2F)CC1(CO)c1ccccc1)N1CCN(C)CC1` (racemic) [Compound 3-4, {3-(2,5-difluorophenyl)-1-[2-(4-methylpiperazin-1-yl)propanoyl]-5-phenyl-4,5-dihydro-1H-pyrazol-5-yl}methanol], for which the half-inhibitory concentration (IC50) is ≤ 50 µM.
